The values below come from patent publication US20250092084A1, “C7, C12, AND C16 SUBSTITUTED NEUROACTIVE STEROIDS AND THEIR METHODS OF USE” (Sage Therapeutics, Inc., priority 2016, published 2025).

The assay has as its target rat brain cortical membranes (GABA receptor complex, [35S]-TBPS binding). As to the kind of experiment: Steroid inhibition of [35S]-TBPS binding. Particulars: 3 nM [35S]-TBPS, in the presence of 5 mM GABA. On the procedure:
[^35S]-t-Butylbicyclophosphorothionate (TBPS) binding assays using rat brain cortical membranes in the presence of 5 mM GABA has been described (Gee et al, J Pharmacol. Exp. Ther. 1987, 241, 346-353; Hawkinson et al, Mol. Pharmacol. 1994, 46, 977-985; Lewin, A. H et al., Mol. Pharmacol. 1989, 35, 189-194).
Briefly, cortices are rapidly removed following decapitation of carbon dioxide-anesthetized Sprague-Dawley rats (200-250 g). The cortices are homogenized in 10 volumes of ice-cold 0.32 M sucrose using a glass/teflon homogenizer and centrifuged at 1500×g for 10 min at 4° C. The resultant supernatants are centrifuged at 10,000×g for 20 min at 4° C. to obtain the P2 pellets. The P2 pellets are resuspended in 200 mM NaCl/50 mM Na—K phosphate pH 7.4 buffer and centrifuged at 10,000×g for 10 min at 4° C. This washing procedure is repeated twice and the pellets are resuspended in 10 volumes of buffer. Aliquots ([…]) of the membrane suspensions are incubated with 3 nM [^35S]-TBPS and […] aliquots of test drug dissolved in dimethyl sulfoxide (DMSO) (final 0.5%) in the presence of 5 mM GABA. The incubation is brought to a final volume of 1.0 mL with buffer. Nonspecific binding is determined in the presence of […] and ranged from 15 to 25%. Following a 90 min incubation at room temp, the assays are terminated by filtration through glass fiber filters (Schleicher and Schuell No. 32) using a cell harvester (Brandel) and rinsed three times with ice-cold buffer. Filter bound radioactivity is measured by liquid scintillation spectrometry. Non-linear curve fitting of the overall data for each drug averaged for each concentration is done using Prism (GraphPad). […] The concentration of test compound producing 50% inhibition (IC50) of specific binding and the maximal extent of inhibition (Imax) are determined for the individual experiments with the same model used for the overall data and then the means±SEMs of the individual experiments are calculated.
Various compounds are or can be screened to determine their potential as modulators of [^35S]-TBPS binding in vitro. These assays are or can be performed in accordance with the above discussed procedures.
As for `CO[C@@H]1C[C@H]2[C@@H](CC[C@H]3C[C@](C)(O)CC[C@@]32C)[C@@H]2CC[C@H](C(=O)Cn3cc(C#N)cn3)[C@@]12C` [Compound 44], the IC50 was 0.01 to 0.05 µM.

Turning to `CC(=O)[C@H]1CC[C@H]2[C@@H]3CC[C@H]4C[C@](C)(O)CC[C@]4(C)[C@H]3CC(=O)[C@]12C` [Compound 46], the IC50 is ≥ 0.5 µM.

For `C[C@@]1(O)CC[C@@]2(C)[C@@H](CC[C@@H]3[C@@H]2C[C@@H](O)[C@]2(C)[C@@H](C(=O)Cn4cc(C#N)cn4)CC[C@@H]32)C1` [Compound 47], the IC50 was ≥ 0.5 µM.

Consider `C[C@@]1(O)CC[C@@]2(C)[C@@H](CC[C@@H]3[C@@H]2CC(=O)[C@]2(C)[C@@H](C(=O)Cn4cc(C#N)cn4)CC[C@@H]32)C1` [Compound 48], for which the IC50 was ≥ 0.5 µM.

Take `C[C@@]1(O)CC[C@@]2(C)[C@@H](CC[C@@H]3[C@@H]2C[C@@H](O)[C@]2(C)[C@@H](C(=O)Cn4cc5ccncc5n4)CC[C@@H]32)C1` [Compound 49]: the half-maximal inhibitory concentration (IC50) lay within 0.1 to 0.5 µM.

Turning to `C[C@@]1(O)CC[C@@]2(C)[C@@H](CC[C@@H]3[C@@H]2C[C@@H](O)[C@]2(C)[C@@H](C(=O)Cn4ncc5ccncc54)CC[C@@H]32)C1` [Compound 50], the IC50 is ≥ 0.5 µM.

`CO[C@H]1C[C@H]2[C@@H](CC[C@H]3C[C@](C)(O)CC[C@@]32C)[C@@H]2CC[C@@H](C(C)=O)[C@@]12C` [Compound 51]: the IC50 is ≥ 0.5 µM.

As for `CO[C@H]1C[C@H]2[C@@H](CC[C@H]3C[C@](C)(O)CC[C@@]32C)[C@@H]2CC[C@H](C(C)=O)[C@@]12C` [Compound 52], the IC50 is ≥ 0.5 µM.

With `CO[C@H]1C[C@H]2[C@@H](CC[C@H]3C[C@](C)(O)CC[C@@]32C)[C@@H]2CC[C@H](C(=O)Cn3cc(C#N)cn3)[C@@]12C` [Compound 53], the IC50 was ≥ 0.5 µM.

Take `CO[C@H]1C[C@H]2[C@@H](CC[C@H]3C[C@](C)(O)CC[C@@]32C)[C@@H]2CC[C@H](C(=O)Cn3cc4ccncc4n3)[C@@]12C` [Compound 54]: the IC50 was ≥ 0.5 µM.

For `CO[C@H]1C[C@H]2[C@@H](CC[C@H]3C[C@](C)(O)CC[C@@]32C)[C@@H]2CC[C@H](C(=O)Cn3ncc4ccncc43)[C@@]12C` [Compound 55], the IC50 is ≥ 0.5 µM.

With `CO[C@@H]1C[C@H]2[C@@H](CC[C@@H]3C[C@](C)(O)CC[C@@H]32)[C@@H]2CC[C@H](C(C)=O)[C@@]12C` [Compound 56], the IC50 lay in the range of 0.05 to 0.1 µM.

As to `CO[C@@H]1C[C@H]2[C@@H](CC[C@@H]3C[C@](C)(O)CC[C@@H]32)[C@@H]2CC[C@H](C(=O)Cn3nnnc3C)[C@@]12C` [Compound 59], the IC50 was 0.1 to 0.5 µM.

Consider `CO[C@@H]1C[C@H]2[C@@H](CC[C@H]3C[C@](C)(O)CC[C@@]32C)[C@@H]2CC[C@H](C(=O)Cn3nnnc3C)[C@@]12C` [Compound 61], for which the IC50 was 0.1 to 0.5 µM.

As for `CO[C@@H]1C[C@H]2[C@@H](CC[C@H]3C[C@](C)(O)CC[C@@]32C)[C@@H]2CC[C@H](C(=O)Cn3cc4ccncc4n3)[C@@]12C` [Compound 62], the IC50 was 0.01 to 0.05 µM.

With `CO[C@@H]1C[C@H]2[C@@H](CC[C@H]3C[C@](C)(O)CC[C@@]32C)[C@@H]2CC[C@H](C(=O)Cn3ncc4ccncc43)[C@@]12C` [Compound 63], the IC50 was 0.1 to 0.5 µM.

On to `CC(=O)[C@H]1[C@H](C)C[C@H]2[C@@H]3CC[C@H]4C[C@](C)(O)CC[C@]4(C)[C@H]3CC[C@@]21C` [Compound 64], for which the IC50 fell in the range of 0.1 to 0.5 µM.

On to `CC[C@@H]1C[C@H]2[C@@H]3CC[C@H]4C[C@](C)(O)CC[C@]4(C)[C@H]3CC[C@]2(C)[C@H]1C(C)=O` [Compound 65], for which the half-maximal inhibitory concentration (IC50) is ≥ 0.5 µM.

With `C[C@@H]1C[C@H]2[C@@H]3CC[C@H]4C[C@](C)(O)CC[C@]4(C)[C@H]3CC[C@]2(C)[C@H]1C(=O)Cn1cc(C#N)cn1` [Compound 66], the IC50 is 0.01 to 0.05 µM.

For the compound `COc1ccc2nn(CC(=O)[C@H]3[C@H](C)C[C@H]4[C@@H]5CC[C@H]6C[C@](C)(O)CC[C@]6(C)[C@H]5CC[C@@]43C)nc2c1` [Compound 67], the half-inhibitory concentration (IC50) was 0.01 to 0.05 µM.

For the compound `COc1ccc2nnn(CC(=O)[C@H]3[C@H](C)C[C@H]4[C@@H]5CC[C@H]6C[C@](C)(O)CC[C@]6(C)[C@H]5CC[C@@]43C)c2c1` [Compound 68], the IC50 lay within 0.01 to 0.05 µM.

On to `COc1ccc2c(c1)nnn2CC(=O)[C@H]1[C@H](C)C[C@H]2[C@@H]3CC[C@H]4C[C@](C)(O)CC[C@]4(C)[C@H]3CC[C@@]21C` [Compound 69], for which the IC50 lay in the range of 0.01 to 0.05 µM.

`CC[C@@H]1C[C@H]2[C@@H]3CC[C@H]4C[C@](C)(O)CC[C@]4(C)[C@H]3CC[C@]2(C)[C@H]1C(=O)Cn1nc2ccc(OC)cc2n1` [Compound 70]: the IC50 was ≥ 0.5 µM.

For `CC[C@@H]1C[C@H]2[C@@H]3CC[C@H]4C[C@](C)(O)CC[C@]4(C)[C@H]3CC[C@]2(C)[C@H]1C(=O)Cn1nnc2ccc(OC)cc21` [Compound 71], the IC50 was ≥ 0.5 µM.

Take `CC[C@@H]1C[C@H]2[C@@H]3CC[C@H]4C[C@](C)(O)CC[C@]4(C)[C@H]3CC[C@]2(C)[C@H]1C(=O)Cn1nnc2cc(OC)ccc21` [Compound 72]: the IC50 was ≥ 0.5 µM.

For the compound `CC(=O)[C@H]1[C@H](C(C)C)C[C@H]2[C@@H]3CC[C@H]4C[C@](C)(O)CC[C@]4(C)[C@H]3CC[C@@]21C` [Compound 73], the IC50 was ≥ 0.5 µM.

Turning to `CC[C@@H]1C[C@H]2[C@@H]3CC[C@H]4C[C@](C)(O)CC[C@]4(C)[C@H]3CC[C@]2(C)[C@H]1C(=O)Cn1cc(C#N)cn1` [Compound 74], the IC50 was ≥ 0.5 µM.

`CC(C)[C@@H]1C[C@H]2[C@@H]3CC[C@H]4C[C@](C)(O)CC[C@]4(C)[C@H]3CC[C@]2(C)[C@H]1C(=O)Cn1ncc2ccncc21` [Compound 75]: the half-inhibitory concentration (IC50) is ≥ 0.5 µM.

Consider `CC(C)[C@@H]1C[C@H]2[C@@H]3CC[C@H]4C[C@](C)(O)CC[C@]4(C)[C@H]3CC[C@]2(C)[C@H]1C(=O)Cn1cc2ccncc2n1` [Compound 76], for which the IC50 is ≥ 0.5 µM.

As to `COc1ccc2nn(CC(=O)[C@H]3[C@H](C(C)C)C[C@H]4[C@@H]5CC[C@H]6C[C@](C)(O)CC[C@]6(C)[C@H]5CC[C@@]43C)nc2c1` [Compound 77], the IC50 is ≥ 0.5 µM.

For `CC(C)[C@@H]1C[C@H]2[C@@H]3CC[C@H]4C[C@](C)(O)CC[C@]4(C)[C@H]3CC[C@]2(C)[C@H]1C(=O)Cn1cc(C#N)cn1` [Compound 88], the half-maximal inhibitory concentration (IC50) was ≥ 0.5 µM.

In the case of `Cc1nnn(CC(=O)[C@H]2[C@H](C)C[C@H]3[C@@H]4CC[C@H]5C[C@](C)(O)CC[C@]5(C)[C@H]4CC[C@@]32C)n1` [Compound 89], the IC50 fell in the range of 0.01 to 0.05 µM.

`Cc1nnnn1CC(=O)[C@H]1[C@H](C)C[C@H]2[C@@H]3CC[C@H]4C[C@](C)(O)CC[C@]4(C)[C@H]3CC[C@@]21C` [Compound 90]: the IC50 lay in the range of 0.1 to 0.5 µM.

For orientation: IC50 means the point on the concentration scale where inhibition reaches its midpoint.
